Source: US4797399A, “Piperazine compounds and antithrombotic pharmaceutical composition comprising the same” (Fujisawa Pharmaceutical Co., Ltd., priority 1986, dated 1989)
Where two headings read alike, the source gives them in different places.

What was measured:
[1] = test system: platelet aggregation (ADP); assay: Platelet aggregation in vitro, ADP-induced (rabbit platelet rich plasma); type: cell-based; conditions: Oryctolagus cuniculus
Method: (§1) Platelet rich plasma (PRP) which contains 6-7×10^8 platelets/ml was prepared from rabbit blood. To the 200 μl of PRP, 5 μl of calcium chloride (1 mM) and 50 μl of 25 mM Tris-acetate solution (pH 7.4) containing 120 mM NaCl or test compound were added successively, and then stirred for 2 min. at 37° C. […] Aggregation was measured by using an aggregometer. (NKK HEMA-TRACER 1).

[2] = test system: platelet aggregation (collagen); assay: Platelet aggregation in vitro, collagen-induced (rabbit platelet rich plasma); type: cell-based; conditions: Oryctolagus cuniculus
Method: as §1

[3] = test system: acetic acid-induced writhing; assay: Acetic acid-induced writhing syndrome; type: in vivo, Scl:ddy strain mice; conditions: 32 mg/kg oral, 60 min before 0.6% acetic acid i.p., 3-13 min count; * P < 0.01
Method: Male Scl:ddy strain mice aged 6 weeks were used in groups of 10. The test compound was suspended in methylcellulose and administered orally. After 60 min., 20 ml/kg of 0.6% acetic acid solution was administered i.p. and writhing episodes between 3 and 13 min. after acetic acid injection were counted. The data was analyzed statistically by student's t-test.

[4] = test system: systemic anaphylaxis; assay: Systemic anaphylaxis (passive sensitization with rabbit anti-ovalbumin serum, ovalbumin aerosol); type: in vivo, Hartley guinea pigs; conditions: 30 min before antigen aerosol
Method: Male Hartley guinea pigs (300-400 g, n=5) were passively sensitized with i.v. injection of rabbit anti-ovalbumin serum. 24 Hours later, test compound was administered orally. 30 Min. after administration of test compound, sensitized animals were placed for 2 min. in a chamber filled with antigen aerosol (ovalbumin) by a conventional nebulizer. Survived animals were regarded as being protected from systemic anaphylaxis.

[5] = test system: platelet aggregation (collagen); assay: Platelet aggregation ex vivo, collagen-induced, after oral administration to rats; type: in vivo, Sprague-Dawley rats; conditions: 1 hour after dosing, collagen 5.0 μg/ml
Method: Male Sprague-Dawley rats weighing about 250 g were used after overnight fasting. One hour after oral administration of test compound or vehicle of test compound (control), blood was collected into a tube containing 0.1 vol. of 3.8% sodium citrate. To the 0.45 ml of blood, 0.05 ml of collagen (final concentration 5.0 μg/ml) was added and then incubated for 5 min. at 37° C. under shaking.
The reaction was terminated by addition of 1 ml of 10 mM phosphate buffered saline (pH 7.4) containing 11.5 mM EDTA and 1% formalin. The reaction mixture was centrifuged at 70×g for 5 min. and platelet count of upper phase was measured by Technicon Auto Analizer.
Platelet aggregation was calculated according to the following formula: [formula] A. Platelet count after addition of vehicle of collagen B. Platelet count after addition of collagen
Inhibition of the test compound was calculated according to the following formula; [formula] C. Platelet aggregation (%) of control D. Platelet aggregation (%) of Test compound

[6] = test system: carrageenin foot edema; assay: Carrageenin foot edema; type: in vivo, Sprague-Dawley rats; conditions: 320 mg/kg oral, 60 min before phlogogen, edema at 3 hours; * P < 0.05
Method: Male Sprague-Dawley rats weighing about 180 g were used in groups of five. Paw edema was induced by subplantar injection of 1% carrageenin (0.1 ml/rat) into the right hind paw in carrageenin foot edema. The test compound was suspended in methylcellulose and administered orally 60 minutes before phlogogen. Paw volume was measured with plethysmometer (Ugo Basil Co., Ltd.) by water displacement immersing the paw to the lateral malleolus. The difference of paw volume before and 3 hours after the phlogogen was designated as edema volume. The data analyzed statistically by student's t-test.

CC(=O)Oc1ccccc1C(=O)O [Aspirin, reference compound]
IC50 ([1]; pH 7.4, read-out: ID50 ADP (dose required to inhibit platelet aggregation by 50%)): 3200 µM
IC50 ([2]; pH 7.4, read-out: ID50 Collagen (dose required to inhibit platelet aggregation by 50%)): 31 µM

Cl.NN1CCN(C(=O)Cn2c(=O)sc3ccc(Cl)cc32)CC1 [Example 5, 5-chloro-3-[(4-amino-1-piperazinyl)carbonylmethyl]-2-benzothiazolinone hydrochloride]
Inhibition (%) of acetic acid-induced writhing [3]: 32.8%
Survival (%) ([4]; 10 mg/kg oral): 20%
Survival (%) ([4]; 100 mg/kg oral): 100%
IC50 ([1]; inducer ADP (2.5 μM), rabbit PRP, pH 7.4, 37° C, read-out: ID50 ADP (dose required to inhibit platelet aggregation by 50%)): 14 µM
Inhibition (%) of platelet aggregation ex vivo ([5]; 10 mg/kg oral): 2%
Inhibition (%) of platelet aggregation ex vivo ([5]; 32 mg/kg oral): 67%
Inhibition (%) of platelet aggregation ex vivo ([5]; 100 mg/kg oral): 100%
Inhibition (%) of carrageenin foot edema [6]: 40.0%
IC50 ([2]; inducer collagen (2.5 μg/ml), rabbit PRP, pH 7.4, 37° C, read-out: ID50 Collagen (dose required to inhibit platelet aggregation by 50%)): 14 µM
